Measurements from patent US6723753B2, “Substituted n-benzyl-n-phenyl aminoalcohol compounds useful for inhibiting cholesteryl ester transfer protein activity” (Pharmacia Corporation, priority 2002, dated 2004).
Read-outs that look alike come from different tables or passages of the source.

Target: T1, CETP (Homo sapiens, UniProt P11597)
T1 sequence (P11597 18-493): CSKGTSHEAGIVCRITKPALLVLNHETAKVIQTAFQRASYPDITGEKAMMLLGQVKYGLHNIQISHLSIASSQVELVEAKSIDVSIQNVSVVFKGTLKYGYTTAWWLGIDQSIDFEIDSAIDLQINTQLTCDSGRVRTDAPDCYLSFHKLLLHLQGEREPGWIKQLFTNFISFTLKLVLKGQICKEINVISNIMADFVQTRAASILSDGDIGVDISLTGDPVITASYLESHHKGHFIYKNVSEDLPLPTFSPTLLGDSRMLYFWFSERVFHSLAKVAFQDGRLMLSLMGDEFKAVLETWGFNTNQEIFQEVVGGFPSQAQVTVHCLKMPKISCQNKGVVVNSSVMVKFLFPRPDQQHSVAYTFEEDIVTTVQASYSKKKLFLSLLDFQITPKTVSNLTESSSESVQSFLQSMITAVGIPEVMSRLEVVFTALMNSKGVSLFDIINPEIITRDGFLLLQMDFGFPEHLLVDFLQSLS
Assay: Assay of CETP Inhibition using Purified Components (Reconstituted Buffer Assay)
Type: biochemical
Set-up: made in house; host or cells: CHO cells (serum-free conditioned medium)
Settings: transfer of [3H]CE from HDL to LDL
Method: Assay of CETP Inhibition using Purified Components (Reconstituted Buffer Assay)
The ability of compounds to inhibit CETP activity was assessed using an in vitro assay that measured the rate of transfer of radiolabeled cholesteryl ester ([^3H]CE) from HDL donor particles to LDL acceptor particles. Details of the assay are provided by Glenn, K. C. et al. (Glenn and Melton, “Quantification of Cholesteryl Ester Transfer Protein (CETP): A) CETP Activity and B) Immunochemical Assay of CETP Protein,” Meth. Enzymol., 263, 339-351 (1996)). Human recombinant CETP can be obtained from the serum-free conditioned medium of CHO cells transfected with a cDNA for CETP and purified as described by Wang, S. et al. (J. Biol. Chem. 267, 17487-17490 (1992)). To measure CETP activity, [^3H]CE-labeled-HDL, LDL, CETP and assay buffer (50 mM tris(hydroxymethyl)aminomethane, pH 7.4; 150 mM sodium chloride; 2 mM ethylenediamine-tetraacetic acid (EDTA); 1% bovine serum albumin) were incubated in a final volume of 200 μL, for 2 hours at 37° C. in 96 well plates. […] The inhibitors were then diluted 1:1 with CETP in assay buffer, and then 25 μL of that solution was mixed with 175 μL of lipoprotein pool for assay. Following incubation, LDL was differentially precipitated by the addition of 50 μL of 1% (w/v) dextran sulfate/0.5 M magnesium chloride, mixed by vortex, and incubated at room temperature for 10 minutes. A potion of the solution (200 μL) was transferred to a filter plate (Millipore). After filtration, the radioactivity present in the precipitated LDL was measured by liquid scintillation counting.
This value was defined as the IC50.
Examples of IC50 values determined by these methods are specified in Table 9.

[1] = Inhibition of CETP activity in reconstituted buffer assay, read-out: IC50
[2] = IC50, Inhibition of CETP activity in reconstituted buffer assay

Row | IC50 [1] | Structure (SMILES) | IC50 [2]
1 | 42 µM | OC(CN(Cc1cccc(OC(F)(F)C(F)F)c1)c1cccc(S)c1)C(F)(F)F (stereo not shown) [473B] | –
2 | 15 µM | OC(CN(Cc1cccc(OC(F)(F)C(F)F)c1)c1cccc(CBr)c1)C(F)(F)F (stereo not shown) [514D] | –
3 | 11 µM | O=[N+]([O-])c1cccc(N(Cc2cccc(OC(F)(F)C(F)F)c2)CC(O)C(F)(F)F)c1 (stereo not shown) [528B] | –
4 | > 100 µM | OC(CNc1cccc(Oc2ccccc2)c1)C(F)(F)F (stereo not shown) [588B] | –
5 | 24.6 µM | CON(C)C(=O)c1cccc(CN(CC(O)C(F)(F)F)c2cccc(Oc3ccccc3)c2)c1 (stereo not shown) [620A] | –
6 | > 50 µM | OC(CNCc1cccc(OC(F)(F)F)c1)C(F)(F)F (stereo not shown) [632A] | –
7 | 38 µM | OC(CN(Cc1cccc(C(F)(F)F)c1)c1cccc(F)c1)C(F)(F)F (stereo not shown) [Example 1, 3-[(3-fluorophenyl)[[3-(3-trifluoromethyl)phenyl]methyl]amino]-1,1,1-tri-fluoro-2-propanol] | –
8 | 60 µM | COc1cccc(N(Cc2ccc(C)cc2)CC(O)C(F)(F)F)c1 (stereo not shown) [Example 4] | –
9 | > 100 µM | Cc1ccc(N(Cc2cccc(C)c2)CC(O)C(F)(F)F)cc1 (stereo not shown) [Example 5] | –
10 | > 100 µM | COc1ccc(N(Cc2ccc(C)cc2)CC(O)C(F)(F)F)cc1 (stereo not shown) [Example 6] | –
11 | > 100 µM | OC(CN(Cc1ccccc1)c1ccc(Cl)cc1)C(F)(F)F (stereo not shown) [Example 7] | –
12 | > 100 µM | Cc1ccc(CN(CC(O)C(F)(F)F)c2ccc(C)cc2)cc1 (stereo not shown) [Example 8] | –
13 | > 100 µM | Cc1cccc(CN(CC(O)C(F)(F)F)c2cccc(Cl)c2)c1 (stereo not shown) [Example 9] | –
14 | > 100 µM | Cc1cccc(CN(CC(O)C(F)(F)F)c2cccc(C)c2)c1 (stereo not shown) [Example 11] | –
15 | > 100 µM | Cc1ccc(CN(CC(O)C(F)(F)F)c2cccc(C)c2)cc1 (stereo not shown) [Example 12] | –
16 | > 100 µM | Cc1ccc(CN(CC(O)C(F)(F)F)c2ccccc2C)cc1 (stereo not shown) [Example 13] | –
17 | 60 µM | Cc1ccc(N(Cc2ccccc2)CC(O)C(F)(F)F)cc1 (stereo not shown) [Example 14] | –
18 | > 100 µM | Cc1ccccc1N(Cc1ccccc1)CC(O)C(F)(F)F (stereo not shown) [Example 15] | –
19 | 60 µM | OC(CN(Cc1ccccc1)c1cccc(Cl)c1)C(F)(F)F (stereo not shown) [Example 16] | –
20 | 45 µM | Cc1cccc(CN(CC(O)C(F)(F)F)c2ccc(F)c(F)c2)c1 (stereo not shown) [Example 17] | –
21 | 15 µM | OC(CN(Cc1cccc(C(F)(F)F)c1)c1ccc(F)c(F)c1)C(F)(F)F (stereo not shown) [Example 19] | –
22 | 15 µM | COc1ccc(N(Cc2ccc(C(F)(F)F)cc2)CC(O)C(F)(F)F)cc1 (stereo not shown) [Example 23] | –

Row | IC50 [1] | Structure (SMILES) | IC50 [2]
23 | > 100 µM | Cc1ccc(CN(CC(O)C(F)(F)F)c2ccc(F)c(F)c2)cc1 (stereo not shown) [Example 24] | –
24 | – | Cc1cccc(N(Cc2cccc(C(F)(F)F)c2)CC(O)C(F)(F)F)c1 (stereo not shown) [Example 25] | 10 µM
25 | 8 µM | COc1cccc(N(Cc2ccc(C(F)(F)F)cc2)CC(O)C(F)(F)F)c1 (stereo not shown) [Example 26] | –
26 | > 100 µM | Cc1cccc(CN(CC(O)C(F)(F)F)c2ccccc2C)c1 (stereo not shown) [Example 27] | –
27 | 75 µM | COc1ccc(N(Cc2cccc(C)c2)CC(O)C(F)(F)F)cc1 (stereo not shown) [Example 28] | –
28 | > 100 µM | Cc1ccc(CN(CC(O)C(F)(F)F)c2cc(F)cc(F)c2)cc1 (stereo not shown) [Example 29] | –
29 | 22 µM | OC(CN(Cc1cccc(C(F)(F)F)c1)c1cccc(Br)c1)C(F)(F)F (stereo not shown) [Example 30] | –
30 | > 100 µM | Cc1ccc(N(Cc2ccc(C(F)(F)F)cc2)CC(O)C(F)(F)F)cc1 (stereo not shown) [Example 37] | –
31 | 13 µM | OC(CN(Cc1cccc(C(F)(F)F)c1)c1cccc(Cl)c1)C(F)(F)F (stereo not shown) [Example 38] | –
32 | 15 µM | Cc1cccc(N(Cc2ccc(C(F)(F)F)cc2)CC(O)C(F)(F)F)c1 (stereo not shown) [Example 39] | –
33 | > 100 µM | Cc1ccccc1N(Cc1ccc(C(F)(F)F)cc1)CC(O)C(F)(F)F (stereo not shown) [Example 40] | –
34 | 12 µM | OC(CN(Cc1cccc(OC(F)(F)F)c1)c1cccc(Cl)c1)C(F)(F)F (stereo not shown) [Example 41] | –
35 | 2.7 µM | OC(CN(Cc1cccc(OC(F)(F)C(F)F)c1)c1cccc(I)c1)C(F)(F)F (stereo not shown) [Example 44] | –
36 | > 100 µM | OC(CN(Cc1cccc(F)c1)c1cccc(C(F)(F)F)c1)C(F)(F)F (stereo not shown) [Example 46] | –
37 | – | OC(CN(Cc1cccc(C(F)(F)F)c1)c1cccc(C(F)(F)F)c1)C(F)(F)F (stereo not shown) [Example 47] | 10 µM
38 | > 100 µM | COc1cccc(N(Cc2cccc(C(F)(F)F)c2)CC(O)C(F)(F)F)c1 (stereo not shown) [Example 48] | –
39 | 15 µM | OC(CN(Cc1ccc(C(F)(F)F)cc1)c1cccc(Cl)c1)C(F)(F)F (stereo not shown) [Example 50] | –
40 | 20 µM | COc1ccc(N(Cc2cccc(C(F)(F)F)c2)CC(O)C(F)(F)F)cc1 (stereo not shown) [Example 51] | –
41 | 7 µM | OC(CN(Cc1cccc(C(F)(F)F)c1)c1ccc(F)c(C(F)(F)F)c1)C(F)(F)F (stereo not shown) [Example 52] | –
42 | 15 µM | Cc1ccc(CN(CC(O)C(F)(F)F)c2ccc(F)c(C(F)(F)F)c2)cc1 (stereo not shown) [Example 53] | –
43 | 15 µM | OC(CN(Cc1ccc(OC(F)(F)F)cc1)c1cccc(C(F)(F)F)c1)C(F)(F)F (stereo not shown) [Example 54] | –
44 | 20 µM | OC(CN(Cc1ccc(OC(F)(F)F)cc1)c1cccc(Cl)c1)C(F)(F)F (stereo not shown) [Example 55] | –

Row | IC50 [1] | Structure (SMILES) | IC50 [2]
45 | 20 µM | OC(CN(Cc1ccc(OC(F)(F)F)cc1)c1ccc(F)c(F)c1)C(F)(F)F (stereo not shown) [Example 56] | –
46 | – | OC(CN(Cc1ccc(OC(F)(F)F)cc1)c1cccc(F)c1)C(F)(F)F (stereo not shown) [Example 57] | 15 µM
47 | 15 µM | Cc1cccc(CN(CC(O)C(F)(F)F)c2ccc(F)c(C(F)(F)F)c2)c1 (stereo not shown) [Example 58] | –
48 | 7 µM | OC(CN(Cc1ccc(OC(F)(F)F)cc1)c1ccccc1)C(F)(F)F (stereo not shown) [Example 59] | –
49 | 23 µM | Cc1cccc(N(Cc2ccc(OC(F)(F)F)cc2)CC(O)C(F)(F)F)c1 (stereo not shown) [Example 61] | –
50 | 18 µM | OC(CN(Cc1ccc(OC(F)(F)F)cc1)c1cccc(Br)c1)C(F)(F)F (stereo not shown) [Example 62] | –
51 | – | OC(CN(Cc1cccc(Oc2ccccc2)c1)c1cccc(F)c1)C(F)(F)F (stereo not shown) [Example 64] | 15 µM
52 | – | OC(CN(Cc1ccc(-c2ccccc2)cc1)c1cccc(F)c1)C(F)(F)F (stereo not shown) [Example 65] | 20 µM
53 | 15 µM | Cc1cccc(CN(CC(O)C(F)(F)F)c2ccc(Cl)c(C(F)(F)F)c2)c1 (stereo not shown) [Example 67] | –
54 | 15 µM | OC(CN(Cc1ccc(OC(F)(F)F)cc1)c1cc(F)cc(F)c1)C(F)(F)F (stereo not shown) [Example 68] | –
55 | 20 µM | OC(CN(Cc1cccc(C(F)(F)F)c1)c1cccc(F)c1F)C(F)(F)F (stereo not shown) [Example 69] | –
56 | 10 µM | Cc1cccc(N(Cc2cccc(OC(F)(F)F)c2)CC(O)C(F)(F)F)c1 (stereo not shown) [Example 72] | –
57 | 3 µM | OC(CN(Cc1cccc(OC(F)(F)F)c1)c1ccccc1)C(F)(F)F (stereo not shown) [Example 73] | –
58 | 10 µM | OC(CN(Cc1cccc(OC(F)(F)F)c1)c1ccc(F)c(F)c1)C(F)(F)F (stereo not shown) [Example 78] | –
59 | 20 µM | OC(CN(Cc1ccc(OC(F)(F)F)cc1)c1cccc(F)c1F)C(F)(F)F (stereo not shown) [Example 80] | –
60 | > 100 µM | Cc1cccc(CN(CC(O)C(F)(F)F)c2cc(F)cc(F)c2)c1 (stereo not shown) [Example 81] | –
61 | 8 µM | OC(CN(Cc1cccc(Oc2ccccc2)c1)c1cccc(OC(F)(F)F)c1)C(F)(F)F (stereo not shown) [Example 82] | –
62 | 20 µM | OC(CN(Cc1cccc(OCc2ccccc2)c1)c1cccc(OC(F)(F)F)c1)C(F)(F)F (stereo not shown) [Example 83] | –
63 | 80 µM | OC(CN(Cc1cccc(Oc2ccccc2)c1)c1ccccc1-c1ccccc1)C(F)(F)F (stereo not shown) [Example 85] | –
64 | 20 µM | OC(CN(Cc1cccc(Oc2ccccc2)c1)c1ccc(-c2ccccc2)cc1)C(F)(F)F (stereo not shown) [Example 86] | –
